# Reference: ChEMBL document CHEMBL5154636, “Discovery of STAT3 and Histone Deacetylase (HDAC) Dual-Pathway Inhibitors for the Treatment of Solid Cancer” (J Med Chem, 2021)
# Calls of active or inactive are those of the source. The calls are words filed in the database; no cut-off is given here.
# Experiments:
# [1] = Half life in Sprague-Dawley rat at 2 mg/kg, iv measured upto 24 hrs by LC-MS/MS analysis; type: ADME, organism-based; conditions: in vivo
# [2] = molecular target: T1, Signal transducer and activator of transcription 3 (Homo sapiens, UniProt P40763); experiment: Binding affinity to recombinant GST tagged STAT3 (unknown origin) assessed as association constant at equilibrium
# T1 sequence (P40763 whole entry): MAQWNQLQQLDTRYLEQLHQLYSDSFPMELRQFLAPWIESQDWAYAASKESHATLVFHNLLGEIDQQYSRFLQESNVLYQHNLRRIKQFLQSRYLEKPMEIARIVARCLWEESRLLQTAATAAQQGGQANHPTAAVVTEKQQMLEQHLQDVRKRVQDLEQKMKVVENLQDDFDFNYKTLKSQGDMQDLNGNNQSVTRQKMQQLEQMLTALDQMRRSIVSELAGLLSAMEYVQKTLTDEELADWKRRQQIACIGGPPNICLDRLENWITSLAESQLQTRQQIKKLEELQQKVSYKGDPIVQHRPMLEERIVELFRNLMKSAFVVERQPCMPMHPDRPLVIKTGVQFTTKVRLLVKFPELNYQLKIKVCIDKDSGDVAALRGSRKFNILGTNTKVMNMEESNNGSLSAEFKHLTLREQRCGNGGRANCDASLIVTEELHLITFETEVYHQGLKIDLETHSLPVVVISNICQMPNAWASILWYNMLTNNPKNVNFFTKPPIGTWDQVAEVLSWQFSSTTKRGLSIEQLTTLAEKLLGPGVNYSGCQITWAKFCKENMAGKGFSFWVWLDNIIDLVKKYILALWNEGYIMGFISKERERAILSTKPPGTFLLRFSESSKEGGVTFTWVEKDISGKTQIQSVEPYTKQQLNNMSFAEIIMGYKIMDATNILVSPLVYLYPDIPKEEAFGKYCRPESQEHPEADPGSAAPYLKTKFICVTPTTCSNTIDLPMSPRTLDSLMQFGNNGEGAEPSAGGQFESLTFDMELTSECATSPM
# MDA-MB-231 [3] = experiment: Induction of apoptosis in human MDA-MB-231 cells assessed as viable cells at 10 uM incubated for 24 hrs by Annexin-V/FITC and PI staining based flow cytometry analysis (reference value: 97.8%); type: functional; conditions: read-out: Activity
# MDA-MB-231 [4] = experiment: Induction of apoptosis in human MDA-MB-231 cells assessed as late apoptotic cells at 2 uM incubated for 24 hrs by Annexin-V/FITC and PI staining based flow cytometry analysis (reference value: 0.7%); type: functional
# MDA-MB-231 [5] = experiment: Cytotoxicity against human MDA-MB-231 cells assessed as reduction in cell viability incubated for 48 hrs by MTT assay; type: functional, cell-based; conditions: MDA-MB-231, 48 h
# [6] = molecular target: T1, Signal transducer and activator of transcription 3; experiment: Inhibition of STAT3 in human MDA-MB-231 cells assessed as decrease in cyclin-D1 protein expression at 0.5 to 5 uM after 24 hrs by Western blot analysis; type: cell-based; conditions: dose 0.5-5 µM
# [7] = Clearance in Sprague-Dawley rat at 2 mg/kg, iv measured upto 24 hrs by LC-MS/MS analysis; type: ADME, organism-based; conditions: in vivo
# [8] = molecular target: T1, Signal transducer and activator of transcription 3; experiment: Binding affinity to recombinant GST tagged STAT3 (unknown origin) assessed as dissociation constant
# MDA-MB-231 [9] = experiment: Induction of apoptosis in human MDA-MB-231 cells assessed as chromatinorrhexis at 0.5 to 5 uM incubated for 24 hrs by Hoechst 33258 staining based fluorescence microscopy analysis; type: functional, cell-based; conditions: dose 0.5-5 µM
# MDA-MB-231 [10] = experiment: Induction of apoptosis in human MDA-MB-231 cells assessed as necrotic cells at 2 uM incubated for 24 hrs by Annexin-V/FITC and PI staining based flow cytometry analysis (reference value: 0.0%); type: functional
# MDA-MB-231 [11] = experiment: Induction of apoptosis in human MDA-MB-231 cells assessed as necrotic cells at 5 uM incubated for 24 hrs by Annexin-V/FITC and PI staining based flow cytometry analysis (reference value: 0.0%); type: functional
# [12] = molecular target: T1, Signal transducer and activator of transcription 3; experiment: Inhibition of STAT3 in human MDA-MB-231 cells assessed as decrease in cyclin D1 mRNA expression at 0.5 to 5 uM by qRT-PCR analysis; type: cell-based; conditions: dose 0.5-5 µM
# [13] = molecular target: T1, Signal transducer and activator of transcription 3; experiment: Inhibition of STAT3 in human MDA-MB-231 cells assessed as decrease in Bcl-2 protein expression at 0.5 to 5 uM after 24 hrs by Western blot analysis; type: cell-based; conditions: dose 0.5-5 µM
# MDA-MB-231 [14] = experiment: Induction of apoptosis in human MDA-MB-231 cells assessed as necrotic cells at 10 uM incubated for 24 hrs by Annexin-V/FITC and PI staining based flow cytometry analysis (reference value: 0.0%); type: functional
# MDA-MB-231 [15] = experiment: Induction of apoptosis in human MDA-MB-231 cells assessed as viable cells at 2 uM incubated for 24 hrs by Annexin-V/FITC and PI staining based flow cytometry analysis (reference value: 97.8%); type: functional; conditions: read-out: Activity
# [16] = Oral bioavailability in Sprague-Dawley rat at 20 mg/kg measured upto 24 hrs by LC-MS/MS analysis; type: ADME, organism-based; conditions: in vivo
# MDA-MB-231 [17] = experiment: Induction of apoptosis in human MDA-MB-231 cells assessed as viable cells at 5 uM incubated for 24 hrs by Annexin-V/FITC and PI staining based flow cytometry analysis (reference value: 97.8%); type: functional; conditions: read-out: Activity
# 4T1 [18] = experiment: Antitumor activity against mouse 4T1 cells allografted in BALB/c mouse assessed as reduction in tumor weight at 15 mg/kg, ip qd for 21 days by vernier caliper method relative to control; type: functional; set-up: scale not given: the % may be the effect or the level left; conditions: time 21 day
# [19] = Half life in Sprague-Dawley rat at 20 mg/kg, po measured upto 24 hrs by LC-MS/MS analysis; type: ADME, organism-based; conditions: in vivo
# [20] = molecular target: Histone deacetylase (Homo sapiens) (UniProt Q13547+O15379+Q9UBN7+Q92769+Q9UQL6+Q8WUI4+Q9BY41+Q96DB2+P56524+Q9UKV0+Q969S8); experiment: Inhibition of HDAC in human MDA-MB-231 cells assessed as increase in histone H3 acetylation incubated for 24 hrs by Western blot analysis; type: cell-based; conditions: dose 0.5-5 µM, DDE = dose-dependent effect
# MDA-MB-231 [21] = experiment: Induction of apoptosis in human MDA-MB-231 cells assessed as early apoptotic cells at 2 uM incubated for 24 hrs by Annexin-V/FITC and PI staining based flow cytometry analysis (reference value: 1.4%); type: functional
# MDA-MB-231 [22] = experiment: Induction of apoptosis in human MDA-MB-231 cells assessed as increase in cleaved capase-3 level at 0.5 to 5 uM incubated for 24 hrs by Western blot analysis; type: functional, cell-based; conditions: dose 0.5-5 µM
# Histone deacetylase 1 = Histone deacetylase 1 (Homo sapiens, UniProt Q13547); experiment: Inhibition of recombinant human HDAC1 using RHKK(Ac)AMC fluorogenic peptide as substrate by fluorescence assay
# Histone deacetylase 1, sequence (Q13547 whole entry): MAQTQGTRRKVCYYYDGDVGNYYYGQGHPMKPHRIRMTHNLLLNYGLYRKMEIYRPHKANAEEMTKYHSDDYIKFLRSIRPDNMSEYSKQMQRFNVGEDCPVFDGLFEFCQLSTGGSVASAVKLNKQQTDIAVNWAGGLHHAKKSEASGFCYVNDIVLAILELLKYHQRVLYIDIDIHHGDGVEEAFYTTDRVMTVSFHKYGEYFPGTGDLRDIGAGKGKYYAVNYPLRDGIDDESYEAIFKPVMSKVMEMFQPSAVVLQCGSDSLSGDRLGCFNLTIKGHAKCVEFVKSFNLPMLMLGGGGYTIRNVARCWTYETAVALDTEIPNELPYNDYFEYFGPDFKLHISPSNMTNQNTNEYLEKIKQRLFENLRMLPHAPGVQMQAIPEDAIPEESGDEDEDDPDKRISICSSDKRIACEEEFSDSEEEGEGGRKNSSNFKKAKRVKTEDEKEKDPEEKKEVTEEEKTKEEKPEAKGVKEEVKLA
# MDA-MB-231 [23] = experiment: Induction of apoptosis in human MDA-MB-231 cells assessed as early apoptotic cells at 10 uM incubated for 24 hrs by Annexin-V/FITC and PI staining based flow cytometry analysis (reference value: 1.4%); type: functional
# [24] = molecular target: Histone deacetylase 4 (Homo sapiens) (UniProt P56524); experiment: Inhibition of recombinant human HDAC4 at 10 uM using […] substrate by fluorescence assay relative to control
# Histone deacetylase 4 (Homo sapiens), sequence (P56524 whole entry): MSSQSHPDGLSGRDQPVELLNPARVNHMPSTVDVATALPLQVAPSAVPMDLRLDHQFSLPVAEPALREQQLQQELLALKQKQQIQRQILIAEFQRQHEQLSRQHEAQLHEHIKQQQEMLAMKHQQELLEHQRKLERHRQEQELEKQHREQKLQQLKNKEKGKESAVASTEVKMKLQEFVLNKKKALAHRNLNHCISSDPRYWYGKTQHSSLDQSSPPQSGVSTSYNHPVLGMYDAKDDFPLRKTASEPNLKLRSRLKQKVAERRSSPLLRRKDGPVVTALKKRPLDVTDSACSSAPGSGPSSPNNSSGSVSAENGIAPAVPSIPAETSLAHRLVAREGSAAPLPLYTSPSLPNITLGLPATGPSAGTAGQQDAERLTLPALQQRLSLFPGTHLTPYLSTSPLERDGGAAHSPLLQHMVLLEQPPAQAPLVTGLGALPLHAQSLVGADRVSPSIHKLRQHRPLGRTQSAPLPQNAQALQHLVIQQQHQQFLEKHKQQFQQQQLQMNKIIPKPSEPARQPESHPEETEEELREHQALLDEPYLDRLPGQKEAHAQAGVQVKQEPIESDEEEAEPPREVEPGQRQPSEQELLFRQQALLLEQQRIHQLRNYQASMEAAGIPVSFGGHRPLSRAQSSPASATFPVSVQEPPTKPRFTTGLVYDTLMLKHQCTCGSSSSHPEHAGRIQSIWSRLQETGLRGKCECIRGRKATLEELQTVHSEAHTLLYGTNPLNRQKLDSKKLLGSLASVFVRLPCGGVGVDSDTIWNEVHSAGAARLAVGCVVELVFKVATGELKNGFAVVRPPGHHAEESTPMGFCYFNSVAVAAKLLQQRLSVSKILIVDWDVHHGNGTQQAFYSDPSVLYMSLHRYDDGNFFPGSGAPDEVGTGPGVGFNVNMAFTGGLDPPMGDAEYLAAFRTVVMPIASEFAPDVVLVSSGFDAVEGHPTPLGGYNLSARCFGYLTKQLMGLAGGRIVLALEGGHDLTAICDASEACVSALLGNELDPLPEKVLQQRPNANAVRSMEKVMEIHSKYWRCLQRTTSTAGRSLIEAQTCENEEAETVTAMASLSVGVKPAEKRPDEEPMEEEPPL
# 4T1 [25] = experiment: Antitumor activity against mouse 4T1 cells allografted in BALB/c mouse assessed as reduction in tumor volume at 15 mg/kg, ip qd for 21 days and measured every 3 days by vernier caliper method relative to control; type: functional; set-up: scale not given: the % may be the effect or the level left; conditions: time 21 day
# MDA-MB-231 [26] = experiment: Effect on STAT3 in human MDA-MB-231 cells assessed as […] phosphorylation at 10 uM incubated for 24 hrs by Western blot analysis; type: functional, cell-based
# 4T1 [27] = experiment: Antitumor activity against mouse 4T1 cells allografted in BALB/c mouse assessed as reduction in tumor volume at 30 mg/kg, ip qd for 21 days and measured every 3 days by vernier caliper method relative to control; type: functional; set-up: scale not given: the % may be the effect or the level left; conditions: time 21 day
# MDA-MB-231 [28] = experiment: Induction of apoptosis in human MDA-MB-231 cells assessed as chromatin condensation at 0.5 to 5 uM incubated for 24 hrs by Hoechst 33258 staining based fluorescence microscopy analysis; type: functional, cell-based; conditions: dose 0.5-5 µM
# [29] = molecular target: T2, Histone deacetylase 11 (Homo sapiens) (UniProt Q96DB2); experiment: Inhibition of recombinant human HDAC11 at 10 uM using Boc-Lys(TFA)-AMC as substrate by fluorescence assay relative to control
# T2 sequence (whole entry): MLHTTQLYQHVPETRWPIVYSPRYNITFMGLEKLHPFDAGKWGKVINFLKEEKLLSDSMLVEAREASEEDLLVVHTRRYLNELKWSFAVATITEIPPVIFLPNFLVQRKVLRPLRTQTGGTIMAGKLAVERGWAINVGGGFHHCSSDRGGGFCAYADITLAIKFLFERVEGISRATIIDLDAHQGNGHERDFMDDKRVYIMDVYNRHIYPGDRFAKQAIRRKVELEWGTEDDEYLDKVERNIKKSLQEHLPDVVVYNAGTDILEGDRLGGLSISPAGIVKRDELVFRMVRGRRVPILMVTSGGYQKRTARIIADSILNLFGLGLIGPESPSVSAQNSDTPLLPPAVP
smiles,measurement,setting,value
COc1cc(/C=C/c2ccc(OCCCCCCC(=O)NO)cc2)cc(OC)c1,half-life,[1],28.2 min
same,Ka,[2],451000 M⁻¹ s⁻¹
same,viability at 10 µM,MDA-MB-231 [3],40.5%
same,Activity,MDA-MB-231 [4],5.7%
same,IC50,MDA-MB-231 [5],0.78 µM
same,inhibition,[6],Active
same,clearance,[7],3.83 L/h/kg
same,Kd,[8],0.01516 s⁻¹
same,Kd,[8]; read-out: Kd,0.0336 µM
same,Activity,MDA-MB-231 [9],Active
same,Activity,MDA-MB-231 [10],0.1%
same,Activity,MDA-MB-231 [11],0.2%
same,inhibition,[12],Active
same,inhibition,[13],Active
same,Activity,MDA-MB-231 [14],0.2%
same,viability at 2 µM,MDA-MB-231 [15],89.3%
same,bioavailability,[16],5.81%
same,viability at 5 µM,MDA-MB-231 [17],80.8%
same,Activity,4T1 [18],53%
same,half-life,[19],52.8 min
same,Activity,[20],Dde
same,Activity,MDA-MB-231 [21],4.9%
same,Activity,MDA-MB-231 [22],Active
same,IC50,Histone deacetylase 1,0.683 µM
same,Activity,MDA-MB-231 [23],39.6%
same,inhibition,[24],12%
same,Activity,4T1 [25],54%
same,Activity,MDA-MB-231 [26],Active
same,Activity,4T1 [27],64%
same,Activity,MDA-MB-231 [28],Active
same,inhibition,[29],37%
